In PubChem BioAssay AID1845210 (Molecular Pharmacology Branch, DTP, NCI, 2023):

System: NCI-H226 complex tumor spheroids, viability
Assay: Anticancer human tumor NCI-H226 cell line growth inhibition;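 further: spheroids exposed to compound for 7 days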;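 on viability, T/C: 100% = DMSO vehicle control viability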
Details: for IC50: curve of first compound; for viability, T/C: stronger effect = lower value
Text: Multicellular complex tumor spheroid response to DNA repair inhibitors in combination with DNA-damaging drugs
This study explores the anticancer activities of DNA-damaging drugs and inhibitors of DNA damage repair, both as single agents and in combinations. Complex tumor spheroids comprised of malignant cells, endothelial cells and mesenchymal stem cells served as an in vitro model for human solid tumors. This model system incorporates physiologically relevant features and patient-derived or established malignant cell lines with clinically relevant genetic alterations from many tumor types. Twenty-six patient-derived or established malignant cell lines were evaluated representing sarcoma, melanoma, small cell lung cancer (SCLC), non-small cell lung cancer (NSCLC), as well as bladder, ovarian and pancreatic cancers. The concentration ranges selected for each drug and investigational agent were based upon clinically achievable concentrations if the clinical Cmax of the agent was known.
Compounds. The drugs and compounds olaparib (NSC753686), talazoparib (NSC767125), berzosertib (NSC777718), elimusertib (NSC800525), nedisertib (NSC802822), VX-984 (NSC792969), AZD-1390 (NSC803789), temozolomide (NSC362856), topotecan (NSC609699), trabectedin (NSC813783), staurosporine (NSC755774), and gemcitabine (NSC613327) were obtained from the National Cancer Institute (NCI) Developmental Therapeutics Program Chemical Repository. The FDA-approved anticancer drug set is available from the Developmental Therapeutics Program at https://dtp.cancer.gov/organization/dscb/obtaining/available_plates.htm. […] The stock solutions were prepared in dimethyl sulfoxide (DMSO, Sigma-Aldrich, St. Louis, MO, cat. D2650) at 400-fold the tested concentration and stored at -70 degrees C. Prior to their use, the stock solutions were diluted in fresh medium and the final DMSO concentration in the assay was 0.25% (v/v). All drugs and investigational agents were tested over a range starting from a high concentration at or near the clinical Cmax and decreasing in half-log increments. If the clinical Cmax for an agent had not been determined, the highest concentration tested was 10 microM.
Cell Lines. The patient-derived cancer cell (PDC) lines: 156681-154-R-J1-PDC, 283228-195-R-J1-PDC, 287954-098-R-J1-PDC, 292921-168-R-J2-PDC, 349418-098-R-PDC, 425362-245-T-J1-PDC, 556581-035-R-J1-PDC, and BL0293-F563-PDC were received from the NCI Patient-Derived Models Repository (PDMR, https://pdmr.cancer.gov). The established cell lines HS-SY-2 (RRID:CVCL_8719), MPNST, and SYO-1 (RRID:CVCL_7146) were obtained from the Sloan Kettering Institute. The alveolar soft parts sarcoma cell line ASPS-1 (RRID:CVCL_S738) was established at the NCI and grown from internal seed stocks. The following established cell lines were purchased from the American Type Culture Collection (ATCC, Manassas, VA): G-401 (ATCC, cat. CRL-1441, RRID:CVCL_0270), SW982 (ATCC, cat. HTB-93, RRID:CVCL_1734), VA-ES-BJ (ATCC, cat. CRL-2138, RRID:CVCL_1785), NCI-H719 (ATCC, cat. CRL-5837, RRID:CVCL_1582), NCI-H196 (ATCC, cat. CRL-5823, RRID:CVCL_1509), NCI-H841 (ATCC, cat. CRL-5845, RRID:CVCL_1595), NCI-H1618 (ATCC, cat. CRL-5879, RRID:CVCL_1480), NCI-H1876 (ATCC, cat. CRL-5902, RRID:CVCL_1503), DMS 114 (ATCC, cat. CRL-2066; RRID:CVCL_1174), NCI-H211 (ATCC, cat. CRL-5824; RRID:CVCL_1529), and SW 1271 (ATCC, cat. CRL-2177, RRID:CVCL_1716). The small cell lung cancer cell line COR-L88 was purchased from Sigma-Aldrich (cat. 92031917-1VL, RRID:CVCL_1141). The non-small cell lung cancer cell lines NCI-H226 (RRID:CVCL_1544) and NCI-H322M (RRID:CVCL_1557) were established at the NCI and grown from internal seed stocks. Pooled donor human umbilical vein endothelial cells (HUVEC, Lonza, cat. CC-2519) and human mesenchymal stem cells (hMSC, Lonza, cat. PT-2501) were purchased from Lonza (Walkersville, MD).
Cell Culture. All cells were maintained in an incubator at 37 degrees C and 5% CO2 with 95% humidity. […]

[1] = second compound 0.003 µM, first compound 0.0316 µM
[2] = second compound 0.003 µM, first compound 0.1 µM
[3] = second compound 0.003 µM, first compound 0.316 µM
[4] = second compound 0.003 µM, first compound 1 µM
[5] = second compound 0.003 µM, first compound 3.16 µM
[6] = second compound 0.003 µM, first compound 10 µM
[7] = second compound 0.00949 µM, first compound 0.0316 µM
[8] = second compound 0.00949 µM, first compound 0.1 µM
[9] = second compound 0.00949 µM, first compound 0.316 µM
[10] = second compound 0.00949 µM, first compound 1 µM
[11] = second compound 0.00949 µM, first compound 3.16 µM
[12] = second compound 0.00949 µM, first compound 10 µM
[13] = second compound 0.03 µM, first compound 0.0316 µM
[14] = second compound 0.03 µM, first compound 0.1 µM
[15] = second compound 0.03 µM, first compound 0.316 µM
[16] = second compound 0.03 µM, first compound 1 µM
[17] = second compound 0.03 µM, first compound 3.16 µM
[18] = second compound 0.03 µM, first compound 10 µM
[19] = second compound 0.0949 µM, first compound 0.0316 µM
[20] = second compound 0.0949 µM, first compound 0.1 µM
[21] = second compound 0.0949 µM, first compound 0.316 µM
[22] = second compound 0.0949 µM, first compound 1 µM
[23] = second compound 0.0949 µM, first compound 3.16 µM
[24] = second compound 0.0949 µM, first compound 10 µM
[25] = second compound 0.3 µM, first compound 0.0316 µM
[26] = second compound 0.3 µM, first compound 0.1 µM
[27] = second compound 0.3 µM, first compound 0.316 µM
[28] = second compound 0.3 µM, first compound 1 µM
[29] = second compound 0.3 µM, first compound 3.16 µM
[30] = second compound 0.3 µM, first compound 10 µM

CC1COCCN1c1cc(-c2ccnn2C)c2ccnc(-c3ccn[nH]3)c2n1 (stereo not given) + CC[C@@]1(O)C(=O)OCc2c1cc1n(c2=O)Cc2cc3c(CN(C)C)c(O)ccc3nc2-1
IC50 (second compound 0.003 µM): 1.04 µM
IC50 (second compound 0.00949 µM): 1.09 µM
IC50 (second compound 0.03 µM): 0.823 µM
IC50 (second compound 0.0949 µM): 0.814 µM
IC50 (second compound 0.3 µM): 0.518 µM
viability, T/C [1]: 97.2%
viability, T/C [2]: 81.5%
viability, T/C [3]: 74%
viability, T/C [4]: 47.6%
viability, T/C [5]: 39.2%
viability, T/C [6]: 36.1%
viability, T/C [7]: 93.8%
viability, T/C [8]: 85.1%
viability, T/C [9]: 69.3%
viability, T/C [10]: 52.5%
viability, T/C [11]: 36.1%
viability, T/C [12]: 33.4%
viability, T/C [13]: 83.1%
viability, T/C [14]: 76.3%
viability, T/C [15]: 63.6%
viability, T/C [16]: 48.1%
viability, T/C [17]: 36.8%
viability, T/C [18]: 37.9%
viability, T/C [19]: 82.2%
viability, T/C [20]: 71.3%
viability, T/C [21]: 65.1%
viability, T/C [22]: 46.1%
viability, T/C [23]: 37.4%
viability, T/C [24]: 34.9%
viability, T/C [25]: 71.2%
viability, T/C [26]: 66.9%
viability, T/C [27]: 56.8%
viability, T/C [28]: 41.4%
viability, T/C [29]: 36.3%
viability, T/C [30]: 38.1%

COc1cc(C)[nH]c(=O)c1CN1CCc2c(Cl)cc(C(OC)C3COC3)c(Cl)c2C1=O (stereo not given) + CC[C@@]1(O)C(=O)OCc2c1cc1n(c2=O)Cc2cc3c(CN(C)C)c(O)ccc3nc2-1
IC50 (second compound 0.003 µM): > 10 µM
IC50 (second compound 0.00949 µM): > 10 µM
IC50 (second compound 0.03 µM): > 10 µM
IC50 (second compound 0.0949 µM): > 10 µM
IC50 (second compound 0.3 µM): > 10 µM
viability, T/C [1]: 93.7%
viability, T/C [2]: 123%
viability, T/C [3]: 110%
viability, T/C [4]: 122%
viability, T/C [5]: 112%
viability, T/C [6]: 98.5%
viability, T/C [7]: 88.6%
viability, T/C [8]: 102%
viability, T/C [9]: 100%
viability, T/C [10]: 95.8%
viability, T/C [11]: 99.2%
viability, T/C [12]: 97.3%
viability, T/C [13]: 86.4%
viability, T/C [14]: 87%
viability, T/C [15]: 80.6%
viability, T/C [16]: 92.7%
viability, T/C [17]: 92.6%
viability, T/C [18]: 87.4%
viability, T/C [19]: 97.3%
viability, T/C [20]: 93.1%
viability, T/C [21]: 86.4%
viability, T/C [22]: 92.9%
viability, T/C [23]: 88.3%
viability, T/C [24]: 81.6%
viability, T/C [25]: 71.4%
viability, T/C [26]: 73.3%
viability, T/C [27]: 72%
viability, T/C [28]: 75.2%
viability, T/C [29]: 69.9%
viability, T/C [30]: 72.9%

Cc1cc(C)c(CNC(=O)c2cc(-c3ccc(CN4CCOCC4)cc3)cc3c2cnn3C2CCCC2)c(=O)[nH]1 + CC[C@@]1(O)C(=O)OCc2c1cc1n(c2=O)Cc2cc3c(CN(C)C)c(O)ccc3nc2-1
IC50 (second compound 0.003 µM): > 10 µM
IC50 (second compound 0.00949 µM): > 10 µM
IC50 (second compound 0.03 µM): > 10 µM
IC50 (second compound 0.0949 µM): > 10 µM
IC50 (second compound 0.3 µM): > 10 µM
viability, T/C [1]: 101%
viability, T/C [2]: 96.8%
viability, T/C [3]: 98.3%
viability, T/C [4]: 85.3%
viability, T/C [5]: 95.7%
viability, T/C [6]: 108%
viability, T/C [7]: 87.2%
viability, T/C [8]: 88.8%
viability, T/C [9]: 92.4%
viability, T/C [10]: 82.9%
viability, T/C [11]: 78.6%
viability, T/C [12]: 96.3%
viability, T/C [13]: 91.8%
viability, T/C [14]: 78.3%
viability, T/C [15]: 87.6%
viability, T/C [16]: 88.9%
viability, T/C [17]: 79.7%
viability, T/C [18]: 95.3%
viability, T/C [19]: 70.7%
viability, T/C [20]: 72.9%
viability, T/C [21]: 71%
viability, T/C [22]: 77.5%
viability, T/C [23]: 76.1%
viability, T/C [24]: 106%
viability, T/C [25]: 64%
viability, T/C [26]: 62.4%
viability, T/C [27]: 67%
viability, T/C [28]: 68.5%
viability, T/C [29]: 79.8%
viability, T/C [30]: 95.2%

[2H]c1nc(C)nc([2H])c1-c1cc(NC[C@@H](C)c2cccc3c(C(=O)NC)ccnc23)ncn1 + CC[C@@]1(O)C(=O)OCc2c1cc1n(c2=O)Cc2cc3c(CN(C)C)c(O)ccc3nc2-1
IC50 (second compound 0.003 µM): > 10 µM
IC50 (second compound 0.00949 µM): > 10 µM
IC50 (second compound 0.03 µM): > 10 µM
IC50 (second compound 0.0949 µM): > 10 µM
IC50 (second compound 0.3 µM): > 10 µM
viability, T/C [1]: 89.6%
viability, T/C [2]: 93.2%
viability, T/C [3]: 92.6%
viability, T/C [4]: 82%
viability, T/C [5]: 79.5%
viability, T/C [6]: 88.1%
viability, T/C [7]: 86.8%
viability, T/C [8]: 88.3%
viability, T/C [9]: 93%
viability, T/C [10]: 86.7%
viability, T/C [11]: 84.3%
viability, T/C [12]: 88.5%
viability, T/C [13]: 79%
viability, T/C [14]: 82%
viability, T/C [15]: 84.3%
viability, T/C [16]: 79%
viability, T/C [17]: 81.5%
viability, T/C [18]: 73%
viability, T/C [19]: 88.8%
viability, T/C [20]: 89%
viability, T/C [21]: 85.1%
viability, T/C [22]: 83%
viability, T/C [23]: 80.5%
viability, T/C [24]: 86.5%
viability, T/C [25]: 59.8%
viability, T/C [26]: 70.4%
viability, T/C [27]: 65.5%
viability, T/C [28]: 71.9%
viability, T/C [29]: 59.5%
viability, T/C [30]: 60.7%
